Results: publication PMC7168933, “Design, Synthesis and Biochemical Evaluation of Novel Ethanoanthracenes and Related Compounds to Target Burkitt’s Lymphoma” (Pharmaceuticals, 2020)
Where two headings read alike, the source gives them in different places.

Tests used:
[1] = tested on: MUTU-1 Burkitt lymphoma cell line (EBV+); assay: cells; settings: Mutu-1, 24 h; for IC50: read-out: IC50 MUTU-I 24 h
[2] = tested on: DG-75 Burkitt lymphoma cell line (EBV−, chemoresistant); assay: cells; settings: Homo sapiens, DG-75, 48 h
[3] = read-out: MUTU-1 Cell Viability % 1 μM, 1 μM, 24 h
[4] = read-out: MUTU-1 Cell Viability % 10 μM, 10 μM, 24 h
[5] = read-out: DG-75 Cell Viability % 1 μM, 1 μM, 48 h
[6] = read-out: DG-75 Cell Viability % 10 μM, 10 μM, 48 h

Structure (SMILES) | melting point | viability at 1 µM [1, 3] | viability at 10 µM [1, 4] | viability at 1 µM [2, 5] | viability at 10 µM [2, 6] | IC50 [1] | viability at 1 µM ([1]; read-out: MUTU-1 Cell Viability % 1 μM) | viability at 10 µM ([1]; read-out: MUTU-1 Cell Viability % 10 μM) | viability at 1 µM ([2]; read-out: DG-75 Cell Viability % 1 μM) | viability at 10 µM ([2]; read-out: DG-75 Cell Viability % 10 μM) | viability at 0.5 µM ([2]; read-out: viable cells in DG-75 at 0.5 µM, 0.5 µM, 48 h)
N#C/C=C/C12c3ccccc3C(c3ccccc31)C1C(=O)OC(=O)C12 (stereo not shown) [Compound 23a, (E)-3-(12,14-Dioxo-9,10-[3,4]furanoanthracen-9(10H)-yl)acrylonitrile] | 215 to 219 °C | 82.7% | 82.6% | 89% | 75.8% |  |  |  |  |  | 
O=C1C2C3c4ccccc4C(/C=C/[N+](=O)[O-])(c4ccccc43)C2C(=O)N1c1ccc(F)cc1 (stereo not shown) [Compound 16e, (E)-13-(4-Fluorophenyl)-9-(2-nitrovinyl)-9,10-dihydro-9,10-[3,4]epipyrroloanthracene-12,14-dione] | 242 to 243 °C | 0.07% | 1.4% | 35.4% | 2.3% | 0.25 µM |  |  |  |  | 
O=C1C2C3c4ccccc4C(c4ccccc43)C2C(=O)N1c1ccccc1 (stereo not shown) [Compound 21c] | 227 to 229 °C | 93% | 91.2% | 85.7% | 71.3% |  |  |  |  |  | 
CC/C(=C\C12c3ccccc3C(Cl)(c3ccccc31)C1C(=O)N(c3ccccc3)C(=O)C12)[N+](=O)[O-] (stereo not shown) [Compound 17h, (E)-9-Chloro-10-(2-nitrobut-1-en-1-yl)-13-phenyl-9,10-dihydro-9,10-[3,4]epipyrroloanthracene-12,14-dione] | 261 to 262 °C | 107% | 96.3% | 89.2% | 90.3% |  |  |  |  |  | 
O=C1C2C3c4ccccc4C(/C=C/[N+](=O)[O-])(c4ccccc43)C2C(=O)N1c1cccc(Cl)c1 (stereo not shown) [Compound 16k, (E)-13-(3-Chlorophenyl)-9-(2-nitrovinyl)-9,10-dihydro-9,10-[3,4]epipyrroloanthracene-12,14-dione] | 258 to 261 °C | 2.7% | 0.84% | 69% | 0% |  |  |  |  |  | 
O=C1OC(=O)C2C1C1c3ccccc3C2(CC[N+](=O)[O-])c2ccccc21 (stereo not shown) [Compound 14a, 9-(2-Nitroethyl)-9,10-dihydro-9,10-[3,4]furanoanthracene-12,14-dione] | 242 to 244 °C | 76.7% | 99.3% | 83% | 102% |  |  |  |  |  | 
N#C/C=C/C12c3ccccc3C(c3ccccc31)C1C(=O)N(c3ccccc3)C(=O)C12 (stereo not shown) [Compound 23c, (E)-3-(12,14-Dioxo-13-phenyl-9,10-[3,4]epipyrroloanthracen-9(10H)-yl)acrylonitrile] | 274 to 281 °C | 90.7% | 74.1% | 94.4% | 89.1% |  |  |  |  |  | 
CCOC(=O)C1C2c3ccccc3C(/C=C/[N+](=O)[O-])(c3ccccc32)C1C(=O)OCC (stereo not shown) [Compound 19f, Diethyl (E)-9-(2-nitrovinyl)-9,10-dihydro-9,10-ethanoanthracene-11,12-dicarboxylate] | 151 to 152 °C | 13.6% | 13.8% | 13.9% | 13.8% | 0.55 µM |  |  |  |  | 
C/C(=C\C12c3ccccc3C(c3ccccc31)C1C(=O)N(c3ccccc3)C(=O)C12)[N+](=O)[O-] (stereo not shown) [Compound 17a, (E)-9-(2-Nitroprop-1-en-1-yl)-13-phenyl-9,10-dihydro-9,10-[3,4]epipyrroloanthracene-12,14-dione] | 263 to 266 °C | 79.8% | 68.6% | 78.3% | 88.9% |  |  |  |  |  | 
O=C1C2C3c4ccccc4C(C(=O)O)(c4ccccc43)C2C(=O)N1c1ccccc1 (stereo not shown) [Compound 21i] |  | 103% | 92.5% | 73.2% | 67.5% |  |  |  |  |  | 
O=C1OC(=O)C2C1C1c3ccccc3C2(O)c2ccccc21 (stereo not shown) [Compound 21j] |  | 103% | 100% | 68% | 93% |  |  |  |  |  | 
C/C(=C\C12c3ccccc3C(c3ccccc31)C1C(=O)N(Cc3ccccc3)C(=O)C12)[N+](=O)[O-] (stereo not shown) [Compound 17j, (E)-13-Benzyl-9-(2-nitroprop-1-en-1-yl)-9,10-dihydro-9,10-[3,4]epipyrroloanthracene-12,14-dione] | 232 to 236 °C | 94.6% | 85.6% | 104% | 87.9% |  |  |  |  |  | 
O=CC12c3ccccc3C(c3ccccc31)C1C(=O)NC(=O)C12 (stereo not shown) [Compound 21e] |  | 96.1% | 95.1% | 76% | 71.2% |  |  |  |  |  | 
O=C1NC(=O)C2C1C1c3ccccc3C2(C(=O)O)c2ccccc21 (stereo not shown) [Compound 21h] |  | 92.6% | 92% | 86.3% | 73.1% |  |  |  |  |  | 
O=C1OC(=O)C2C1C1c3ccccc3C2(C(=O)O)c2ccccc21 (stereo not shown) [Compound 21g] |  | 99.2% | 88.8% | 93.1% | 65.4% |  |  |  |  |  | 
CNCCCC12CCC(c3ccccc31)c1ccccc12 [Maprotiline 8, maprotiline, reference compound] |  |  |  |  |  |  | 93.1% | 73% | 102% | 65.1% | 
O=CC12c3ccccc3C(c3ccccc31)C1C(=O)N(c3ccccc3)C(=O)C12 (stereo not shown) [Compound 21f] |  | 102% | 77.7% | 102% | 72.4% |  |  |  |  |  | 
CN(C)CCCN1c2ccccc2Sc2ccc(Cl)cc21 [Compound 5] |  |  |  | 6 to 28% |  |  |  |  |  |  | 18 to 57%
O=C1OC(=O)C2C3c4ccccc4C(c4ccccc43)C12 (stereo not shown) [Compound 21a] |  | 103% | 93.1% | 91.4% | 69.9% |  |  |  |  |  | 
O=CC12c3ccccc3C(c3ccccc31)C1C(=O)OC(=O)C12 (stereo not shown) [Compound 21d] |  | 87.4% | 88.4% | 64.8% | 64.7% |  |  |  |  |  | 
CCOC(=O)C1CC2c3ccccc3C1(/C=C/[N+](=O)[O-])c1ccccc12 (stereo not shown) [Compound 19b, Ethyl (E)-10-(2-nitrovinyl)-9,10-dihydro-9,10-ethanoanthracene-11-carboxylate] |  | 48.9% | 0.69% | 9.8% | 13.4% |  |  |  |  |  | 
N/N=C/C12c3ccccc3C(c3ccccc31)C1C(=O)N(c3ccccc3)C(=O)C12 (stereo not shown) [Compound 23h, (E)-9-(Hydrazonomethyl)-13-phenyl-9,10-dihydro-9,10-[3,4]epipyrroloanthracene-12,14-dione] |  | 91.1% | 78% | 85.8% | 87.4% |  |  |  |  |  | 
COC(=O)C1CC2c3ccccc3C1(/C=C/[N+](=O)[O-])c1ccccc12 (stereo not shown) [Compound 19c, Methyl (E)-10-(2-nitrovinyl)-9,10-dihydro-9,10-ethanoanthracene-11-carboxylate] |  | 15.6% | 8.4% | 92.2% | 1.4% | 0.54 µM |  |  |  |  | 
